Experimental data as given in patent publication US11691962B2 (eXIthera Pharmaceuticals, Inc., priority 2018, dated 2023).

Biological target: Factor XIa (Homo sapiens (Human), UniProt P03951)
Experiment: Factor XIa enzyme inhibition assay (dose response, fluorogenic AMC substrate)
Format: biochemical
Details: read-out: hFXIa IC50
How it was run: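 Fluorogenic progress curves (30 min, 1-min reads, 30° C) were recorded for 0.25 nM FXIa cleaving 50 μM Glp-Pro-Arg-AMC in Hepes pH 7.4 buffer with NaCl and Tween 20. Compounds were serially two-fold diluted, and IC50 was fitted with a Hill equation.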

Factor XIa, sequence (P03951 388-625): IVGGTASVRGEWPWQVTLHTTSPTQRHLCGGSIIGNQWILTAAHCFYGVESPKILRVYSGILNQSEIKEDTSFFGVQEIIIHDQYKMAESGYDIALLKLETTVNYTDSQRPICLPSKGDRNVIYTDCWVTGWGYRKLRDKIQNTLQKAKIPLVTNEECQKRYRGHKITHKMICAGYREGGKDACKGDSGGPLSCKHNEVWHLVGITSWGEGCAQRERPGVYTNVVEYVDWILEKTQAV
Factor XIa, sequence (P03951 19-387 partner): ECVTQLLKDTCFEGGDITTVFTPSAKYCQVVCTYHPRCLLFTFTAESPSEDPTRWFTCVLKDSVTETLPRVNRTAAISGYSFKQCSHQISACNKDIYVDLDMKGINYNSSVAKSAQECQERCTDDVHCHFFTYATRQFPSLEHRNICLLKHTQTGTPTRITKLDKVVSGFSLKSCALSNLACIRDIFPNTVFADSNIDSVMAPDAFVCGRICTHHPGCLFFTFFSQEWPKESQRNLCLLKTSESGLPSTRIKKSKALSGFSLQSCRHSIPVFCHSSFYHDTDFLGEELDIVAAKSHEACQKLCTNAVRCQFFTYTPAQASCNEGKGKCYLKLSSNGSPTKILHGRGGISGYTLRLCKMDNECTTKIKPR

| Compound | IC50 [nM] |
| --- | --- |
| CC[C@@H](NC(=O)N1C(=O)[C@H](Cc2cc(C)nc(N)c2)[C@H]1C(=O)N(C)c1cnn(C)c1)c1cc(F)ccc1C [Compound 1-178, (2S,3R)-3-((2-amino-6-methylpyridin-4-yl)methyl)-N2-(1-methyl-1H-pyrazol-4-yl)-N1-((R)-1-(5-fluoro-2-methylphenyl)propyl)-N2-methyl-4-oxoazetidine-1,2-dicarboxamide] | < 10 |
| CC[C@@H](NC(=O)N1C(=O)[C@H](Cc2cc(C)nc(N)c2)[C@H]1C(=O)N(C)c1cnn(C)c1)c1ccc(C)cc1C [Compound 1-179, (2S,3R)-3-((2-amino-6-methylpyridin-4-yl)methyl)-N2-(1-methyl-1H-pyrazol-4-yl)-N1-((R)-1-(2,4-dimethylphenyl)propyl)-N2-methyl-4-oxoazetidine-1,2-dicarboxamide] | < 10 |
| CC[C@@H](NC(=O)N1C(=O)[C@H](Cc2cc(C)nc(N)c2)[C@H]1C(=O)N(C)c1cnn(C)c1)c1ccc(F)cc1C [Compound 1-180, (2S,3R)-3-((2-amino-6-methylpyridin-4-yl)methyl)-N2-(1-methyl-1H-pyrazol-4-yl)-N1-((R)-1-(4-fluoro-2-methylphenyl)propyl)-N2-methyl-4-oxoazetidine-1,2-dicarboxamide] | 10 to 100 |
| CC[C@@H](NC(=O)N1C(=O)[C@H](Cc2cc(C)nc(N)c2)[C@H]1C(=O)N(C)c1cnn(C)c1)c1ccc(C)cc1 [Compound 1-181, (2S,3R)-3-((2-amino-6-methylpyridin-4-yl)methyl)-N2-(1-methyl-1H-pyrazol-4-yl)-N1-((R)-1-(4-methylphenyl)propyl)-N2-methyl-4-oxoazetidine-1,2-dicarboxamide] | 10 to 100 |
| CC[C@@H](NC(=O)N1C(=O)[C@H](Cc2cc(C)nc(N)c2)[C@H]1C(=O)N(C)c1cnn(C)c1)c1ccc(C)cc1F [Compound 1-183, (2S,3R)-3-((2-amino-6-methylpyridin-4-yl)methyl)-N2-(1-methyl-1H-pyrazol-4-yl)-N1-((R)-1-(2-fluoro-4-methylphenyl)propyl)-N2-methyl-4-oxoazetidine-1,2-dicarboxamide] | < 10 |
| CC[C@@H](NC(=O)N1C(=O)[C@H](Cc2cc(C)nc(N)c2)[C@H]1C(=O)N(C)c1nncs1)c1ccccc1 [Compound 1-186, (2S,3R)-3-((2-amino-6-methylpyridin-4-yl)methyl)-N2-(1,3,4-thiadiazol-2-yl)-N1-((R)-1-phenylpropyl)-N2-methyl-4-oxoazetidine-1,2-dicarboxamide] | < 10 |
| CC[C@@H](NC(=O)N1C(=O)[C@H](Cc2cc(C)nc(N)c2)[C@H]1C(=O)N(C)c1nnco1)c1ccccc1 [Compound 1-187, (2S,3R)-3-((2-amino-6-methylpyridin-4-yl)methyl)-N2-(1,3,4-oxadiazol-2-yl)-N1-((R)-1-phenylpropyl)-N2-methyl-4-oxoazetidine-1,2-dicarboxamide] | < 10 |
| CC[C@@H](NC(=O)N1C(=O)[C@H](Cc2cc(C)nc(N)c2)[C@H]1C(=O)N(C)c1cnn(C)c1)c1ccc(F)cc1F [Compound 1-188, (2S,3R)-3-((2-amino-6-methylpyridin-4-yl)methyl)-N2-(1-methyl-1H-pyrazol-4-yl)-N1-((R)-1-(2,4-difluorophenyl)propyl)-N2-methyl-4-oxoazetidine-1,2-dicarboxamide] | 10 to 100 |
| CC[C@@H](NC(=O)N1C(=O)[C@H](Cc2cc(C)nc(N)c2)[C@H]1C(=O)N(C)c1cnn(C)c1)c1cc(F)cc(F)c1 [Compound 1-189, (2S,3R)-3-((2-amino-6-methylpyridin-4-yl)methyl)-N2-(1-methyl-1H-pyrazol-4-yl)-N1-((R)-1-(3,5-difluorophenyl)propyl)-N2-methyl-4-oxoazetidine-1,2-dicarboxamide] | 10 to 100 |
| CC[C@@H](NC(=O)N1C(=O)[C@H](Cc2cc(C)nc(N)c2)[C@H]1C(=O)N(C)c1cnn(C)c1)c1cccc(C)c1F [Compound 1-190, (2S,3R)-3-((2-amino-6-methylpyridin-4-yl)methyl)-N2-(1-methyl-1H-pyrazol-4-yl)-N1-((R)-1-(2-fluoro-3-methylphenyl)propyl)-N2-methyl-4-oxoazetidine-1,2-dicarboxamide] | < 10 |
| CC[C@@H](NC(=O)N1C(=O)[C@H](Cc2cc(C)nc(N)c2)[C@H]1C(=O)N(C)c1cnn(C)c1)c1cccc(F)c1C [Compound 1-191, (2S,3R)-3-((2-amino-6-methylpyridin-4-yl)methyl)-N2-(1-methyl-1H-pyrazol-4-yl)-N1-((R)-1-(3-fluoro-2-methylphenyl)propyl)-N2-methyl-4-oxoazetidine-1,2-dicarboxamide] | 10 to 100 |
| CC[C@@H](NC(=O)N1C(=O)[C@H](Cc2ccnc(N)c2)[C@H]1C(=O)N(C)c1nccn1C)c1ccc(C)c(F)c1F [Compound 1-192, (2S,3R)-3-((2-aminopyridin-4-yl)methyl)-N2-(1-methyl-1H-imidazol-2-yl)-N1-((R)-1-(2,3-difluoro-4-methylphenyl)propyl)-N2-methyl-4-oxoazetidine-1,2-dicarboxamide] | < 10 |
| CC[C@@H](NC(=O)N1C(=O)[C@H](Cc2ccnc(N)c2)[C@H]1C(=O)N(C)c1nccn1C)c1cc(C)c(F)c(C)c1 [Compound 1-195, (2S,3R)-3-((2-aminopyridin-4-yl)methyl)-N2-(1-methyl-1H-imidazol-2-yl)-N1-((R)-1-(3,5-dimethyl-4-fluorophenyl)propyl)-N2-methyl-4-oxoazetidine-1,2-dicarboxamide] | < 10 |
| CC[C@@H](NC(=O)N1C(=O)[C@H](Cc2ccnc(N)c2)[C@H]1C(=O)N(C)c1nccn1C)c1ccc(C)c(F)c1C [Compound 1-196, (2S,3R)-3-((2-aminopyridin-4-yl)methyl)-N2-(1-methyl-1H-imidazol-2-yl)-N1-((R)-1-(2,4-dimethyl-3-fluorophenyl)propyl)-N2-methyl-4-oxoazetidine-1,2-dicarboxamide] | < 10 |
| CC[C@@H](NC(=O)N1C(=O)[C@H](Cc2ccnc(N)c2)[C@H]1C(=O)N(C)c1ccn(C)n1)c1ccc(C)c(F)c1F [Compound 1-201, (2S,3R)-3-((2-aminopyridin-4-yl)methyl)-N2-(1-methyl-1H-pyrazol-3-yl)-N1-((R)-1-(2,3-difluoro-4-methylphenyl)propyl)-N2-methyl-4-oxoazetidine-1,2-dicarboxamide] | < 10 |
| CC[C@@H](NC(=O)N1C(=O)[C@H](Cc2ccnc(N)c2)[C@H]1C(=O)N(C)c1ccnn1C)c1ccc(C)c(F)c1F [Compound 1-202, (2S,3R)-3-((2-aminopyridin-4-yl)methyl)-N2-(1-methyl-1H-pyrazol-5-yl)-N1-((R)-1-(2,3-difluoro-4-methylphenyl)propyl)-N2-methyl-4-oxoazetidine-1,2-dicarboxamide] | < 10 |
| CC[C@@H](NC(=O)N1C(=O)[C@H](Cc2ccnc(N)c2)[C@H]1C(=O)N(C)c1ccn(C)n1)c1cc(C)c(F)c(C)c1 [Compound 1-203, (2S,3R)-3-((2-aminopyridin-4-yl)methyl)-N2-(1-methyl-1H-pyrazol-3-yl)-N1-((R)-1-(3,5-dimethyl-4-fluorophenyl)propyl)-N2-methyl-4-oxoazetidine-1,2-dicarboxamide] | < 10 |
| CC[C@@H](NC(=O)N1C(=O)[C@H](Cc2ccnc(N)c2)[C@H]1C(=O)N(C)c1ccnn1C)c1cc(F)c(F)c(F)c1 [Compound 1-204, (2S,3R)-3-((2-aminopyridin-4-yl)methyl)-N2-(1-methyl-1H-pyrazol-5-yl)-N1-((R)-1-(3,4,5-trifluorophenyl)propyl)-N2-methyl-4-oxoazetidine-1,2-dicarboxamide] | < 10 |
| CC[C@@H](NC(=O)N1C(=O)[C@H](Cc2ccnc(N)c2)[C@H]1C(=O)N(C)c1ccnn1C)c1cc(C)c(F)c(C)c1 [Compound 1-205, (2S,3R)-3-((2-aminopyridin-4-yl)methyl)-N2-(1-methyl-1H-pyrazol-5-yl)-N1-((R)-1-(3,5-dimethyl-4-fluorophenyl)propyl)-N2-methyl-4-oxoazetidine-1,2-dicarboxamide] | < 10 |
| CC[C@@H](NC(=O)N1C(=O)[C@H](Cc2ccnc(N)c2)[C@H]1C(=O)N(C)c1cnn(C)c1)c1cc(C)c(F)c(C)c1 [Compound 1-206, (2S,3R)-3-((2-aminopyridin-4-yl)methyl)-N2-(1-methyl-1H-pyrazol-4-yl)-N1-((R)-1-(3,5-dimethyl-4-fluorophenyl)propyl)-N2-methyl-4-oxoazetidine-1,2-dicarboxamide] | < 10 |
| CC[C@@H](NC(=O)N1C(=O)[C@H](Cc2ccnc(N)c2)[C@H]1C(=O)N(C)c1cnn(C)c1)c1ccc(F)c(C)c1F [Compound 1-207, (2S,3R)-3-((2-aminopyridin-4-yl)methyl)-N2-(1-methyl-1H-pyrazol-4-yl)-N1-((R)-1-(2,4-difluoro-3-methylphenyl)propyl)-N2-methyl-4-oxoazetidine-1,2-dicarboxamide] | < 10 |
| CC[C@@H](NC(=O)N1C(=O)[C@H](Cc2ccnc(N)c2)[C@H]1C(=O)N(C)c1cnn(C)c1)c1ccc(C)c(F)c1F [Compound 1-208, (2S,3R)-3-((2-aminopyridin-4-yl)methyl)-N2-(1-methyl-1H-pyrazol-4-yl)-N1-((R)-1-(2,3-difluoro-4-methylphenyl)propyl)-N2-methyl-4-oxoazetidine-1,2-dicarboxamide] | < 10 |
| CC[C@@H](NC(=O)N1C(=O)[C@H](Cc2ccnc(N)c2)[C@H]1C(=O)N(C)c1nccn1C)c1ccc(C)c(C)c1C [Compound 1-209, (2S,3R)-3-((2-aminopyridin-4-yl)methyl)-N2-(1-methyl-1H-imidazol-2-yl)-N1-((R)-1-(2,3,4-trimethylphenyl)propyl)-N2-methyl-4-oxoazetidine-1,2-dicarboxamide] | < 10 |
| CC[C@@H](NC(=O)N1C(=O)[C@H](Cc2ccnc(N)c2)[C@H]1C(=O)N(C)c1nccn1C)c1ccc(F)c(F)c1F [Compound 1-210, (2S,3R)-3-((2-aminopyridin-4-yl)methyl)-N2-(1-methyl-1H-imidazol-2-yl)-N1-((R)-1-(2,3,4-trifluorophenyl)propyl)-N2-methyl-4-oxoazetidine-1,2-dicarboxamide] | < 10 |
